Measurements published in PubChem BioAssay AID1845203 (Molecular Pharmacology Branch, DTP, NCI, 2023).

Tested on: G-401 tumor spheroids, viability % test/control
Assay: Anticancer human tumor G-401 cell line growth inhibition;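 further: spheroids exposed to compound for 7 days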;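 on viability, T/C: 100% = DMSO vehicle-treated spheroids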
Conditions: spheroids with HUVEC and MSC; for IC50: curve of first compound; for viability, T/C: stronger effect = lower value
Text: Multicellular complex tumor spheroid response to DNA repair inhibitors in combination with DNA-damaging drugs
This study explores the anticancer activities of DNA-damaging drugs and inhibitors of DNA damage repair, both as single agents and in combinations. Complex tumor spheroids comprised of malignant cells, endothelial cells and mesenchymal stem cells served as an in vitro model for human solid tumors. This model system incorporates physiologically relevant features and patient-derived or established malignant cell lines with clinically relevant genetic alterations from many tumor types. Twenty-six patient-derived or established malignant cell lines were evaluated representing sarcoma, melanoma, small cell lung cancer (SCLC), non-small cell lung cancer (NSCLC), as well as bladder, ovarian and pancreatic cancers. The concentration ranges selected for each drug and investigational agent were based upon clinically achievable concentrations if the clinical Cmax of the agent was known.
Compounds. The drugs and compounds olaparib (NSC753686), talazoparib (NSC767125), berzosertib (NSC777718), elimusertib (NSC800525), nedisertib (NSC802822), VX-984 (NSC792969), AZD-1390 (NSC803789), temozolomide (NSC362856), topotecan (NSC609699), trabectedin (NSC813783), staurosporine (NSC755774), and gemcitabine (NSC613327) were obtained from the National Cancer Institute (NCI) Developmental Therapeutics Program Chemical Repository. The FDA-approved anticancer drug set is available from the Developmental Therapeutics Program at https://dtp.cancer.gov/organization/dscb/obtaining/available_plates.htm. […] The stock solutions were prepared in dimethyl sulfoxide (DMSO, Sigma-Aldrich, St. Louis, MO, cat. D2650) at 400-fold the tested concentration and stored at -70 degrees C. Prior to their use, the stock solutions were diluted in fresh medium and the final DMSO concentration in the assay was 0.25% (v/v). All drugs and investigational agents were tested over a range starting from a high concentration at or near the clinical Cmax and decreasing in half-log increments. If the clinical Cmax for an agent had not been determined, the highest concentration tested was 10 microM.
Cell Lines. The patient-derived cancer cell (PDC) lines: 156681-154-R-J1-PDC, 283228-195-R-J1-PDC, 287954-098-R-J1-PDC, 292921-168-R-J2-PDC, 349418-098-R-PDC, 425362-245-T-J1-PDC, 556581-035-R-J1-PDC, and BL0293-F563-PDC were received from the NCI Patient-Derived Models Repository (PDMR, https://pdmr.cancer.gov). The established cell lines HS-SY-2 (RRID:CVCL_8719), MPNST, and SYO-1 (RRID:CVCL_7146) were obtained from the Sloan Kettering Institute. The alveolar soft parts sarcoma cell line ASPS-1 (RRID:CVCL_S738) was established at the NCI and grown from internal seed stocks. The following established cell lines were purchased from the American Type Culture Collection (ATCC, Manassas, VA): G-401 (ATCC, cat. CRL-1441, RRID:CVCL_0270), SW982 (ATCC, cat. HTB-93, RRID:CVCL_1734), VA-ES-BJ (ATCC, cat. CRL-2138, RRID:CVCL_1785), NCI-H719 (ATCC, cat. CRL-5837, RRID:CVCL_1582), NCI-H196 (ATCC, cat. CRL-5823, RRID:CVCL_1509), NCI-H841 (ATCC, cat. CRL-5845, RRID:CVCL_1595), NCI-H1618 (ATCC, cat. CRL-5879, RRID:CVCL_1480), NCI-H1876 (ATCC, cat. CRL-5902, RRID:CVCL_1503), DMS 114 (ATCC, cat. CRL-2066; RRID:CVCL_1174), NCI-H211 (ATCC, cat. CRL-5824; RRID:CVCL_1529), and SW 1271 (ATCC, cat. CRL-2177, RRID:CVCL_1716). The small cell lung cancer cell line COR-L88 was purchased from Sigma-Aldrich (cat. 92031917-1VL, RRID:CVCL_1141). The non-small cell lung cancer cell lines NCI-H226 (RRID:CVCL_1544) and NCI-H322M (RRID:CVCL_1557) were established at the NCI and grown from internal seed stocks. Pooled donor human umbilical vein endothelial cells (HUVEC, Lonza, cat. CC-2519) and human mesenchymal stem cells (hMSC, Lonza, cat. PT-2501) were purchased from Lonza (Walkersville, MD).
Cell Culture. All cells were maintained in an incubator at 37 degrees C and 5% CO2 with 95% humidity. […]

[1] = second compound 0.003 µM, first compound 0.00949 µM
[2] = second compound 0.003 µM, first compound 0.03 µM
[3] = second compound 0.003 µM, first compound 0.0949 µM
[4] = second compound 0.003 µM, first compound 0.3 µM
[5] = second compound 0.003 µM, first compound 0.949 µM
[6] = second compound 0.003 µM, first compound 3 µM
[7] = second compound 0.00949 µM, first compound 0.00949 µM
[8] = second compound 0.00949 µM, first compound 0.03 µM
[9] = second compound 0.00949 µM, first compound 0.0949 µM
[10] = second compound 0.00949 µM, first compound 0.3 µM
[11] = second compound 0.00949 µM, first compound 0.949 µM
[12] = second compound 0.00949 µM, first compound 3 µM
[13] = second compound 0.03 µM, first compound 0.00949 µM
[14] = second compound 0.03 µM, first compound 0.03 µM
[15] = second compound 0.03 µM, first compound 0.0949 µM
[16] = second compound 0.03 µM, first compound 0.3 µM
[17] = second compound 0.03 µM, first compound 0.949 µM
[18] = second compound 0.03 µM, first compound 3 µM
[19] = second compound 0.0949 µM, first compound 0.00949 µM
[20] = second compound 0.0949 µM, first compound 0.03 µM
[21] = second compound 0.0949 µM, first compound 0.0949 µM
[22] = second compound 0.0949 µM, first compound 0.3 µM
[23] = second compound 0.0949 µM, first compound 0.949 µM
[24] = second compound 0.0949 µM, first compound 3 µM
[25] = second compound 0.3 µM, first compound 0.00949 µM
[26] = second compound 0.3 µM, first compound 0.03 µM
[27] = second compound 0.3 µM, first compound 0.0949 µM
[28] = second compound 0.3 µM, first compound 0.3 µM
[29] = second compound 0.3 µM, first compound 0.949 µM
[30] = second compound 0.3 µM, first compound 3 µM

Compound | IC50 (second compound 0.003 µM) | IC50 (second compound 0.00949 µM) | IC50 (second compound 0.03 µM) | IC50 (second compound 0.0949 µM) | IC50 (second compound 0.3 µM) | viability, T/C [1] | viability, T/C [2] | viability, T/C [3] | viability, T/C [4] | viability, T/C [5] | viability, T/C [6] | viability, T/C [7] | viability, T/C [8] | viability, T/C [9] | viability, T/C [10] | viability, T/C [11] | viability, T/C [12] | viability, T/C [13] | viability, T/C [14] | viability, T/C [15] | further results
CNCc1ccc(-c2cc(-c3nc(-c4ccc(S(=O)(=O)C(C)C)cc4)cnc3N)on2)cc1 + CC[C@@]1(O)C(=O)OCc2c1cc1n(c2=O)Cc2cc3c(CN(C)C)c(O)ccc3nc2-1 | 326 nM | < 9.49 nM | < 9.49 nM | < 9.49 nM | < 9.49 nM | 82.9% | 88% | 81.7% | 50.5% | 30.2% | 21.1% | 43.9% | 51.2% | 39.5% | 21.5% | 16.5% | 17.1% | 21% | 15.8% | 17.9% | viability, T/C [16]: 19.5%; viability, T/C [17]: 20.8%; viability, T/C [18]: 18.1%; viability, T/C [19]: 8.75%; viability, T/C [20]: 8.82%; viability, T/C [21]: 12.4%; viability, T/C [22]: 16.4%; viability, T/C [23]: 16.9%; viability, T/C [24]: 13.3%; viability, T/C [25]: 4.81%; viability, T/C [26]: 6.19%; viability, T/C [27]: 7.23%; viability, T/C [28]: 9.53%; viability, T/C [29]: 9.78%; viability, T/C [30]: 4.97%
Cc1sc2c(c1C)C(c1ccc(Cl)cc1)=NC(CC(=O)Nc1ccc(O)cc1)c1nnc(C)n1-2 (stereo not given) + CC[C@@]1(O)C(=O)OCc2c1cc1n(c2=O)Cc2cc3c(CN(C)C)c(O)ccc3nc2-1 | 46.5 nM | < 9.49 nM | < 9.49 nM | < 9.49 nM | < 9.49 nM | 72% | 57.4% | 38.5% | 25.3% | 15.4% | 6.8% | 38.3% | 40.3% | 22.1% | 17% | 6.36% | 3.51% | 13.9% | 11.6% | 9.1% | viability, T/C [16]: 6.33%; viability, T/C [17]: 3.18%; viability, T/C [18]: 1.34%; viability, T/C [19]: 7.96%; viability, T/C [20]: 5.07%; viability, T/C [21]: 4.63%; viability, T/C [22]: 2.93%; viability, T/C [23]: 1.21%; viability, T/C [24]: 0.82%; viability, T/C [25]: 4.4%; viability, T/C [26]: 3.79%; viability, T/C [27]: 3.23%; viability, T/C [28]: 1.9%; viability, T/C [29]: 1.03%; viability, T/C [30]: 0.5%
